Results on three molecules are retold here after patent publication US8673914B2, “Use of phosphodiesterase inhibitors for treating multidrug resistance” (St. John's University, priority 2011, dated 2014).

SMILES strings stand for the structures.

For one data set, the system named is KB-C2 cells (ABCB1). The data set is described as follows: [^3H]-paclitaxel efflux (Example 1). In kind it is cell-based, human. Conditions: 1 h. The protocol: The intracellular accumulation of [^3H]-paclitaxel was measured as follows. […] Intracellular paclitaxel accumulation was measured by incubating cells with 0.1 μM [^3H]-paclitaxel for 2 h in the presence or absence of the reversal agents at 37° C. The cells were washed three times with ice-cold PBS, then suspended in fresh medium with or without reversal agents at 37° C. Aliquots of the extracellular medium (40 μl) were collected at various time points (0, 60, 120 min), and finally the cells were collected and lysed in 10 mM lysis buffer (pH 7.4, containing 1% Triton X-100 and 0.2% SDS). Each sample was placed in scintillation fluid and the radioactivity was measured in a Packard TRI-CARB1 1900CA liquid scintillation analyzer from Packard Instrument Company, Inc. (Downers Grove, Ill.).

The target in data set [1] is T1, ABCB1 (Homo sapiens, UniProt P08183).
T1 construct: made in house; host or cells: High Five insect cells (membrane vesicles / crude membranes)
T1 sequence (P08183 whole entry): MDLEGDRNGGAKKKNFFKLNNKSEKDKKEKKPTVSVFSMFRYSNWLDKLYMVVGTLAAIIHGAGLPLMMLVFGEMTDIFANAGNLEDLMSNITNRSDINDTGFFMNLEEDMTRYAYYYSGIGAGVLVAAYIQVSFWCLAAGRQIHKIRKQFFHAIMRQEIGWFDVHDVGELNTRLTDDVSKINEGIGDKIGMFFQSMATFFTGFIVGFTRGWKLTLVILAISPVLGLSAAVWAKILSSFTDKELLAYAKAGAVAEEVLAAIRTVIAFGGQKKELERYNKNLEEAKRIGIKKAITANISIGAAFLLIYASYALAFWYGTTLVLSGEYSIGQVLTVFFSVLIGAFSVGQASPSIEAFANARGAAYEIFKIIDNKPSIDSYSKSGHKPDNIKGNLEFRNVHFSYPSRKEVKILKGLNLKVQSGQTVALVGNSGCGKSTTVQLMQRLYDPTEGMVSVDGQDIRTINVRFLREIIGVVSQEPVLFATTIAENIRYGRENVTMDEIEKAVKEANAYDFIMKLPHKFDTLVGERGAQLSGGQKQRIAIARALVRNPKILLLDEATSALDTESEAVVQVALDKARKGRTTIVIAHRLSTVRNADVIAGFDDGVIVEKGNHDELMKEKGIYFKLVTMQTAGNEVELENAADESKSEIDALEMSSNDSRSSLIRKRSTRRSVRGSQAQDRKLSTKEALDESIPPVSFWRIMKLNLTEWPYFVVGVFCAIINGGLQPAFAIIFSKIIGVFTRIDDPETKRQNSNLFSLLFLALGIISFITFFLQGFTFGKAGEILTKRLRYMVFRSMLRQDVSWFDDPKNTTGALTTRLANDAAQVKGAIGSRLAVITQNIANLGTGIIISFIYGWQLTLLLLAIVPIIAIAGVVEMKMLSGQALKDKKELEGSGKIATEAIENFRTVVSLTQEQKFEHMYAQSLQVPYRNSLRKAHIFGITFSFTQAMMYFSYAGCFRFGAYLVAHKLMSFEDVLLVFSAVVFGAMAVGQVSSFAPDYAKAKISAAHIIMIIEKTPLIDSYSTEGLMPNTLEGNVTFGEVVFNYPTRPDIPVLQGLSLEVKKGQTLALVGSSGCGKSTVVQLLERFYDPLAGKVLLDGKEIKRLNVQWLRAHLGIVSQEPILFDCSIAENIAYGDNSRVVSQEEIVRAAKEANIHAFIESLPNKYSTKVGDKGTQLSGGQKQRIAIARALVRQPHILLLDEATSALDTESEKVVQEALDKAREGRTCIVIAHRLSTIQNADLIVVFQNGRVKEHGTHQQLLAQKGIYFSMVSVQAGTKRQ
The data set can be described thus: Vi-sensitive ATPase assay of ABCB1 (Example 1). In kind it is biochemical. Conditions: ABCB1 membrane vesicles; read-out: concentration required for 50% stimulation of ATPase activity. On the procedure:
The Vi-sensitive ATPase activity of ABCB1 in membrane vesicles of High Five™ insect cells was measured as follows. The membrane vesicles ([…]) were incubated in ATPase assay buffer (50 mM MES [pH 6.8], 50 mM KCl, 5 mM sodium azide, 2 mM EGTA, 2 mM dithiothreitol, 1 mM ouabain, and 10 mM MgCl2) with or without 0.3 mM orthovanadate (freshly prepared) at 37° C. for 5 min, then incubated with different concentrations of drug at 37° C. for 3 min. The ATPase reaction was started by the addition of 5 mM ATP, and the total volume was 0.1 ml. After incubation at 37° C. for 20 min, the reactions were stopped by the addition of 0.1 ml of 5% SDS solution and vortexed and kept at room temperature. The liberated Pi was measured as described in Ambudkar et al., supra.

In data set [2] the test system is MRP7 localization in HEK/MRP7 cells. The data set can be described thus: Immunofluorescence of MRP7. In kind it is cell-based. To be noted: 5 μM; 72 h. On the procedure:
HEK/MRP7 cells (1×10^4) were seeded in 24 well plates and cultured overnight. […] Cells were washed with PBS and fixed with 4% paraformaldehyde for 15 min at room temperature and then rinsed with PBS three times. Nonspecific reaction was blocked with 1% BSA for 1 h at room temperature. A polyclonal antibody D19 against MRP7 (1:200) was added and incubated overnight. […] DAPI was used for nuclear staining. Immunofluorescent images were taken with an inverted microscope (model IX70; Olympus, Center Valley, Pa.) with IX-FLA fluorescence and CCD camera.

For data set [3], the target named is T1, ABCB1. The data set can be described thus: Photoaffinity labeling with [^125I]-IAAP (Example 1). To be noted: for IC50: ABCB1 membrane vesicles. In kind it is binding. On the procedure:
The photoaffinity labeling of ABCB1 with [^125I]-IAAP was performed as described in Sauna et al. (2000) Proc. Natl. Acad. Sci. USA 97:2515-20. The membrane vesicles from High Five™ insect cells expressing ABCB1 (50 μg of protein) were incubated at room temperature with different concentrations of drugs in the ATPase assay buffer with [^125I]-IAAP (7 nM) for 5 min under subdued light. […] Subsequently, the samples were run in a 7% Tris-acetate NuPAGE gel on SDS-PAGE; and the gels were dried and exposed to Bio-Max MR film (Eastman Kodak Co., Rochester, N.Y.) at −70° C. for 8-12 h. The radioactivity incorporated into the ABCB1 band was quantified using the STORM 860 PhosphorImager system and ImageQuaNT (Molecular Dynamics, CA).

Another data set deals with HEK/MRP1 (ABCC1). The data set can be described thus: MTT cytotoxicity/reversal assay (Example 1). Conditions: +10 μM reversal agent. In kind it is cell-based. The protocol: The KB-C2 and KB-3-1 were kindly provided by Dr. Akiyama (Kagoshima University, Japan). […] Similarly, the HEK/MRP1 (ABCC1) and HEK/ABCB1 cells were generated by transfecting the HEK293 cells with either the MRP1 expression vector or the ABCB1 expression vector. All of the cell lines were grown in Dulbecco's modified Eagle's medium (DMEM) supplemented with 10% bovine serum, 100 units/ml penicillin, and […] streptomycin in a humidified incubator containing 5% CO2 at 37° C.
(§1) The MTT assay was used to assess cytotoxicity. The cultured cells were harvested with trypsin and resuspended in a final concentration of 4×10^3 cells/well for KB-3-1; 7.5×10^3 cells/well for KB-C2; and 8×10^3 for all of the other cell lines used in this study. Cells were seeded evenly in 96-well multiplates. […] After 68 h of incubation, 20 μl of the MTT solution (4 mg/ml) was added to each well, and the plate was further incubated for 4 h at 37° C., allowing viable cells to convert the yellow-colored MTT into dark-blue formazan crystals. Subsequently, the medium was discarded, and 100 μl of DMSO was added into each well to dissolve the formazan crystals, generating purple color. The absorbance was determined at 570 nm by an OPSYS Microplate Reader from DYNEX Technologies, Inc. (Chantilly, Va.). […] The degree of the reversal of multidrug resistance (MDR) was calculated by dividing the IC50 of an anticancer drug, e.g., an antineoplastic or chemotherapeutic drug (agent, compound), in a cell type in the absence of a reversal agent by the IC50 of the anticancer drug in the same cell type in the presence of the reversal agent. The IC50 values were calculated from survival curves using the Bliss method.

In a further data set the test system is ABCG2-482-R2 (ABCG2). The data set can be described thus: MTT cytotoxicity/reversal assay (Example 1). To be noted: +10 μM reversal agent. On the procedure:
The KB-C2 and KB-3-1 were kindly provided by Dr. Akiyama (Kagoshima University, Japan). HEK293-pcDNA3.1 and wild-type HEK/ABCG2 transfected cells were established by selection with G418 after transfecting HEK293 with either (1) empty pcDNA3.1 vector or (2) pcDNA3.1 vector containing full length of ABCG2 coding arginine (R) at amino acid position 482, and were then cultured in a medium with 2 mg/ml of G418 (ABCG2-482-R2 cells). Similarly, the HEK/MRP1 (ABCC1) and HEK/ABCB1 cells were generated by transfecting the HEK293 cells with either the MRP1 expression vector or the ABCB1 expression vector. All of the cell lines were grown in Dulbecco's modified Eagle's medium (DMEM) supplemented with 10% bovine serum, 100 units/ml penicillin, and […] streptomycin in a humidified incubator containing 5% CO2 at 37° C.
as §1

`CC(=O)O[C@H]1C(=O)[C@@]2(C)[C@H]([C@H](OC(=O)c3ccccc3)[C@]3(O)C[C@H](OC(=O)[C@H](O)[C@@H](NC(=O)c4ccccc4)c4ccccc4)C(C)=C1C3(C)C)[C@]1(OC(C)=O)CO[C@@H]1C[C@@H]2O` [Paclitaxel, paclitaxel] returned an accumulated paclitaxel effluxed in the data set on KB-C2 cells (ABCB1) (absence of vardenafil) of 70%.

With `CN1CC(=O)N2[C@H](c3ccc4c(c3)OCO4)c3[nH]c4ccccc4c3C[C@@H]2C1=O` [Tadalafil, tadalafil], at ABCB1 [1], the EC50 was greater than 25000 nM. Also, the “MRP7 protein localization in plasma membranes” value in data set [2] is recorded as “no alteration of MRP7 protein localization”. In addition, the IC50 against ABCB1 [3] is greater than 50000 nM. The “fold reversal, vincristine” value with HEK/MRP1 (ABCC1) is on record as “(1.03)”. Moreover, the “fold reversal, SN-38” value in the data set with ABCG2-482-R2 (ABCG2) was “(1.04)”.

On to `CCCc1nc(C)c2c(=O)[nH]c(-c3cc(S(=O)(=O)N4CCN(CC)CC4)ccc3OCC)nn12` [Vardenafil, vardenafil], for which the EC50 on ABCB1 [1] amounted to 2690 ± 720 nM. In addition, the “MRP7 protein localization in plasma membranes” value in data set [2] was “no alteration of MRP7 protein localization”. At ABCB1 [3], this molecule displayed an IC50 of 690 nM. The inhibition at 5 min, 10 µM on ABCB1 [3] (pH 6.8, probe [125I]-IAAP (7 nM), 10 μM, read-out: inhibition of [^125I]-IAAP photolabeling) was determined as 90%. Also, the “fold reversal, vincristine” value with HEK/MRP1 (ABCC1) is “(1.07)”. Further, in the data set with KB-C2 cells (ABCB1) (10 μM), the “accumulated paclitaxel retained inside cells” value is on record as 75%. Moreover, the “fold reversal, SN-38” value with ABCG2-482-R2 (ABCG2) is “(0.97)”.
